Test results published in patent US20240174634A1, “Aldehyde Dehydrogenase Inhibitors and Their Therapeutic Use” (priority 2020, published 2024).
pIC50: −log10 of the molar value.

The molecules below were run against T1, ALDH1A3 (Homo sapiens, UniProt P47895) (assay: Primary biochemical assay, NAD(P)H-Glo Detection System). Settings: 30 min pre-incubation, propionaldehyde and NAD at Km.
T1 sequence (P47895 1-512): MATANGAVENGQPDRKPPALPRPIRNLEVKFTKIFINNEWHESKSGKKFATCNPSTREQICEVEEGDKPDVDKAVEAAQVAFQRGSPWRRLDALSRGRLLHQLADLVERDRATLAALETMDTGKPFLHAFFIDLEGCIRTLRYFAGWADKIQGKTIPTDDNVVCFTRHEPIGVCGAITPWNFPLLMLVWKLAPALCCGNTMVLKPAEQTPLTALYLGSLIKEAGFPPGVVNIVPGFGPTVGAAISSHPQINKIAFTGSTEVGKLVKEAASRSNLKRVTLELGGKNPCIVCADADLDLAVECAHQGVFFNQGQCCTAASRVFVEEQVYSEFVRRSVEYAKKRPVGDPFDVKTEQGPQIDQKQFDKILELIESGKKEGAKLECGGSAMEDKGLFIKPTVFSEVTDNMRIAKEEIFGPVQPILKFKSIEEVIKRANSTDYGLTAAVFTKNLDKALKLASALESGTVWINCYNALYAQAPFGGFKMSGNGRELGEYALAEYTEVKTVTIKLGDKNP
Set-up: His-tag; made in house; host or cells: E. coli Rosetta (DE3)
Description: Cloning: Open reading frames corresponding to the protein coding sequences of full length human ALDH1A1 (Uniprot ID P00352), ALDH1A2 (094788) and ALDH1A3 (P47895) were polymerase chain reaction (PCR) amplified from human cDNA and inserted into the multi-cloning sites of the commercially available (Novagen) E. coli expression vectors pET47b (ALDH1A1, EcoRI restriction site; ALDH1A2, BamHI and EcoRI sites) or pET28a (ALDH1A3, NdeI and BamHI sites), using standard molecular genetic techniques. Recombinant DNA products were sequence verified prior to use in expression studies.
Expression: Expression constructs were transformed into the E. coli strain Rosetta (DE3) (Merck) and individual colonies used to inoculate 10 mL lysogen broth (LB) medium supplemented with kanamycin and chloramphenicol at 50 μg/mL and 34 μg/mL, respectively. Cultures were grown to saturation overnight at 37° C., prior to being used to sub-inoculate fresh 1 L LB medium cultures (plus antibiotics, as before). 1 L cultures were grown at 37° C., 200 rpm, throughout the day until the optical density at 600 nm (OD600) reached ˜0.8, at which point growth temperature was reduced to 18° C. and 1 mM isopropyl β-d-1-thiogalacto pyranoside (IPTG) added to induce protein expression.
Cultures were left overnight (at least 16 h) under these conditions and the following day harvested by centrifugation (4000 G, 10 minutes). Culture supernatant was discarded and cell pellets stored at −80° C. until further processing.
Purification: Cell pellets were thawed on ice, re-suspended in Ni Affinity Buffer A (20 mM HEPES pH 7.5, 300 mM NaCl, 20 mM imidazole, 1 mM tris(2-carboxyethyl)phosphine (TCEP)) with protease inhibitors (cOmplete Ultra protease inhibitor, Roche), and lysed by sonication. Lysates were clarified by centrifugation at 18,000 G, 4° C., for 40 minutes, and loaded directly onto a pre-equilibrated (Buffer A) 5 mL HisTrap Fast Flow column (GE Healthcare) by way of an AKTA Fast Protein Liquid Chromatography (FPLC) system. The column was sequentially treated with 6 column volumes (CV) 100% Buffer A, 8 CV of 90% Buffer A:10% Buffer B (20 mM 4-(2-hydroxyethyl)-1-piperazineethanesulfonic acid (HEPES) pH 7.5, 300 mM NaCl, 500 mM imidazole, 1 mM TCEP) and finally a linear gradient from 10-70% Buffer B over 8 CV to elute recombinant His-tagged protein. Relevant fractions (as measured by 280 nm absorbance) collected during elution were pooled and subjected to further purification by size exclusion chromatography (Superdex 200 26/600, GE Healthcare, running buffer 20 mM 2-(carbamoylmethylamino)ethanesulfonic acid (ACES) pH 7.5, 1 mM TCEP). Relevant fractions from this step were pooled, aliquoted, and stored at −80° C. until required for compound profiling assays.
Materials: ALDH2 was purchased from Abnova. Tris(hydroxymethyl)aminomethane (Tris) was purchased from MP Biomedicals. TCEP, ethylenediaminetetraacetic acid (EDTA), propionaldehyde, DMSO and Tween-20 were purchased from Sigma. Nicotinamide adenine dinucleotide (NAD) was obtained from Abcam. The NAD(P)H-Glo™ Detection System was purchased from Promega. White, non-binding surface, 384 well plates were supplied by Corning (#3574).
Method: Inhibition of ALDH1A3 was assessed using the NAD(P)H-Glo™ Detection System (Cat. No. G9062) from Promega. This assay detects the production of NADH from NAD by ALDH1A3 via the coupled enzymatic conversion of a proluciferin reductase substrate to generate a luminescent signal. Inhibition of ALDH1A3 by small molecule inhibitors will result in reduction or abrogation of luminescence signal increase above background. Inhibition of ALDH1A1, ALDH1A2 and ALDH2 (selectivity assays) were assessed using the same assay.
Compounds were dosed into Corning 384 well assay plates using an Echo acoustic dispenser to give 10 point curves in a 3-fold dilution series. Compounds were dispensed from a 20 mM DMSO stock and initially screened at a top concentration of 20 μM (ALDH1A3) or 250 μM (ALDH1A1, ALDH1A2 & ALDH2). […]

SMILES	pIC50
O=C1CCc2cc(OCCN3CC(O)CC3c3cccc(F)c3)ccc2N1 (mixture of isomers) [ALDHI-2035, 6-[2-[2-(3-fluorophenyl)-4-hydroxy-pyrrolidin-1-yl]ethoxy]-3,4-dihydro-1H-quinolin-2-one]	> 7.00
CC1CN(CCOc2ccc3c(c2)CCC(=O)N3)C(c2ccccc2)CO1 (mixture of isomers) [ALDHI-2042, 6-[2-(2-methyl-5-phenyl-morpholin-4-yl)ethoxy]-3,4-dihydro-1H-quinolin-2-one]	6.00 to 7.00
O=C1CCc2cc(NC(=O)c3sc(N4CCOCC4)nc3-c3cccc(F)c3)ccc2N1 [ALDHI-1001, 4-(3-fluorophenyl)-2-morpholino-N-(2-oxo-3,4-dihydro-1H-quinolin-6-yl)thiazole-5-carboxamide]	> 7.00
CN(C)c1nc(-c2cccc(F)c2)c(C(=O)Nc2ccc3c(c2)CCC(=O)N3)s1 [ALDHI-1002, 2-(dimethylamino)-4-(3-fluorophenyl)-N-(2-oxo-3,4-dihydro-1H-quinolin-6-yl)thiazole-5-carboxamide]	> 7.00
O=C1CCc2cc(NC(=O)c3scnc3-c3cccc(F)c3)ccc2N1 [ALDHI-1003, 4-(3-fluorophenyl)-N-(2-oxo-3,4-dihydro-1H-quinolin-6-yl)thiazole-5-carboxamide]	> 7.00
O=C1CCc2cc(NC(=O)c3sc(N4CC(O)C4)nc3-c3cccc(F)c3)ccc2N1 [ALDHI-1004, 4-(3-fluorophenyl)-2-(3-hydroxyazetidin-1-yl)-N-(2-oxo-3,4-dihydro-1H-quinolin-6-yl)thiazole-5-carboxamide]	> 7.00
O=C1CCc2cc(NC(=O)c3sc(N4CCNCC4)nc3-c3cccc(F)c3)ccc2N1 [ALDHI-1005, 4-(3-fluorophenyl)-N-(2-oxo-3,4-dihydro-1H-quinolin-6-yl)-2-piperazin-1-yl-thiazole-5-carboxamide]	> 7.00
O=C1CCc2cc(NC(=O)c3c[nH]nc3-c3cccc(F)c3)ccc2N1 [ALDHI-1006, 3-(3-fluorophenyl)-N-(2-oxo-1,2,3,4-tetrahydroquinolin-6-yl)-1H-pyrazole-4-carboxamide]	6.00 to 7.00
O=C1CCc2cc(NC(=O)c3ccccc3-c3cccc(F)c3)ccc2N1 [ALDHI-1007, 3′-fluoro-N-(2-oxo-1,2,3,4-tetrahydroquinolin-6-yl)-[1,1′-biphenyl]-2-carboxamide]	5.00 to 6.00
Cc1noc(-c2ccccc2C(=O)Nc2ccc3c(c2)CCC(=O)N3)n1 [ALDHI-1008, 2-(3-methyl-1,2,4-oxadiazol-5-yl)-N-(2-oxo-1,2,3,4-tetrahydroquinolin-6-yl)benzamide]	6.00 to 7.00
O=C1CCc2cc(NC(=O)c3ncsc3-c3cccnc3)ccc2N1 [ALDHI-1010, N-(2-oxo-3,4-dihydro-1H-quinolin-6-yl)-5-(3-pyridyl)thiazole-4-carboxamide]	5.00 to 6.00
O=C1CCc2cc(NC(=O)c3ncsc3-c3ccsc3)ccc2N1 [ALDHI-1011, N-(2-oxo-3,4-dihydro-1H-quinolin-6-yl)-5-(3-thienyl)thiazole-4-carboxamide]	6.00 to 7.00
O=C1CCc2cc(NC(=O)c3scnc3-c3ccccc3Cl)ccc2N1 [ALDHI-1012, 4-(2-chlorophenyl)-N-(2-oxo-3,4-dihydro-1H-quinolin-6-yl)thiazole-5-carboxamide]	5.00 to 6.00
Cc1cccc(-c2ncsc2C(=O)Nc2ccc3c(c2)CCC(=O)N3)c1 [ALDHI-1013, 4-(m-tolyl)-N-(2-oxo-3,4-dihydro-1H-quinolin-6-yl)thiazole-5-carboxamide]	5.00 to 6.00
O=C1CCc2cc(NC(=O)c3ncsc3-c3cccc(F)c3)ccc2N1 [ALDHI-1014, 5-(3-fluorophenyl)-N-(2-oxo-3,4-dihydro-1H-quinolin-6-yl)thiazole-4-carboxamide]	6.00 to 7.00
O=C1COc2cc(NC(=O)c3scnc3-c3cccc(F)c3)ccc2N1 [ALDHI-1016, 4-(3-fluorophenyl)-N-(3-oxo-4H-1,4-benzoxazin-7-yl)thiazole-5-carboxamide]	6.00 to 7.00
O=C1CCc2cc(NC(=O)c3scnc3-c3ccc(F)cc3)ccc2N1 [ALDHI-1017, 4-(4-fluorophenyl)-N-(2-oxo-1,2,3,4-tetrahydroquinolin-6-yl)thiazole-5-carboxamide]	> 7.00
O=C1CCc2cc(NC(=O)c3cncnc3-c3cccc(F)c3)ccc2N1 [ALDHI-1018, 4-(3-fluorophenyl)-N-(2-oxo-3,4-dihydro-1H-quinolin-6-yl)pyrimidine-5-carboxamide]	6.00 to 7.00
O=C1CCc2cc(NC(=O)c3ocnc3-c3cccc(F)c3)ccc2N1 [ALDHI-1019, 4-(3-fluorophenyl)-N-(2-oxo-3,4-dihydro-1H-quinolin-6-yl)oxazole-5-carboxamide]	6.00 to 7.00
O=C1CCc2cc(NC(=O)c3scnc3-c3ccccc3F)ccc2N1 [ALDHI-1021, 4-(2-fluorophenyl)-N-(2-oxo-3,4-dihydro-1H-quinolin-6-yl)thiazole-5-carboxamide]	> 7.00
O=C1CCc2cc(NC(=O)c3sccc3-c3cccc(F)c3)ccc2N1 [ALDHI-1022, 3-(3-fluorophenyl)-N-(2-oxo-3,4-dihydro-1H-quinolin-6-yl)thiophene-2-carboxamide]	6.00 to 7.00
O=C1CCc2cc(NC(=O)c3scnc3-c3cccs3)ccc2N1 [ALDHI-1023, N-(2-oxo-3,4-dihydro-1H-quinolin-6-yl)-4-(2-thienyl)thiazole-5-carboxamide]	> 7.00
O=C1CCc2cc(OCCN3CCCC3c3cccc(F)c3)ccc2N1 (stereo not shown) [ALDHI-2001, 6-[2-[2-(3-fluorophenyl)pyrrolidin-1-yl]ethoxy]-3,4-dihydro-1H-quinolin-2-one]	> 7.00
O=C1CCc2cc(OCCN3CCCC3c3ccccc3F)ccc2N1 (stereo not shown) [ALDHI-2002, 6-[2-[2-(2-fluorophenyl)pyrrolidin-1-yl]ethoxy]-3,4-dihydro-1H-quinolin-2-one]	> 7.00
O=C1CCc2cc(OCCN3CCCC3c3ccc(F)cc3)ccc2N1 (stereo not shown) [ALDHI-2003, 6-[2-[2-(4-fluorophenyl)pyrrolidin-1-yl]ethoxy]-3,4-dihydro-1H-quinolin-2-one]	> 7.00
O=C1CCc2cc(OCCN3CCCC3c3ccncc3)ccc2N1 (stereo not shown) [ALDHI-2004, 6-[2-[2-(4-pyridyl)pyrrolidin-1-yl]ethoxy]-3,4-dihydro-1H-quinolin-2-one]	6.00 to 7.00
O=C1CCc2cc(OCCN3CCCC3c3cccnc3)ccc2N1 (stereo not shown) [ALDHI-2005, 6-[2-[2-(3-pyridyl)pyrrolidin-1-yl]ethoxy]-3,4-dihydro-1H-quinolin-2-one]	> 7.00
O=C1CCc2cc(OCCN3CCCC3c3ccccn3)ccc2N1 (stereo not shown) [ALDHI-2006, 6-[2-[2-(2-pyridyl)pyrrolidin-1-yl]ethoxy]-3,4-dihydro-1H-quinolin-2-one]	6.00 to 7.00
